# Measurements from US12667584B2, “Adenosine analog and its use in regulating the circadian clock” (NATIONAL INSTITUTE OF BIOLOGICAL SCIENCES, BEIJING, priority 2017, dated 2026).
# Columns and labels:
# [1] = system: C57BL/6j mice; assay: Wheel running jet-lag experiment, 8 h phase advance or delay; type: in vivo, mouse; settings: for With Pentostadin Cell Assay: Dose effect: 15 mg/kg
# Procedure: Wheel running experiment: Male C57Bj/6 mice at 7 w old were purchased from the Nanjing Biomedical Research Institute of Nanjing University introduced from Jackson Laboratory, housed in individually wheel-running cage in a temperature- and humidity-controlled SPF facility, with ad libitum access to food and water. The animals were entrained under 12 h light/dark photoperiod for two weeks to synchronize the endogenous circadian clock of the mice to the ambient light-dark cycle, light intensity is about 50˜100 lux. After synchronization, light-dark cycles were 8-hr phase-advanced or phase-delayed. On the day of light-dark cycle was shifted advance, mice were firstly fasted at CT 3, then 15 mg/kg bw CA03, 15 and 30 mg/kg bw pro-CA03, 15 and 30 mg/kg bw pro-CA04 or DMSO were intraperitoneal injection at CT 12, and light on time (CT 0) was shifted from 7 am to 11 pm), finally re-feed and inject drug again at CT 23 of the old light-dark cycle. CA03 and pro-CA04 were firstly dissolved in DMSO to the concentration of 200 μg/μl, then dilute with saline to the final concentration of 1000 μg/ml for intraperitoneal injection. Pro-03 was firstly dissolved in DMSO to the concentration of 200 μg/μl, then dilute with 2% tween80 (in sterilized water) to the final concentration of 1000 μg/ml for intraperitoneal injection. On the day of light-dark cycle was shifted delayed, mice were firstly fasted at ZT 3, then 15 mg/kg bw CA03, 15 and 30 mg/kg bw pro-CA03, 15 and 30 mg/kg bw pro-CA04 or DMSO were intraperitoneal injection at CT 12, and light off time (CT12) was shifted from […] to 3 am), finally re-feed and inject drug again at CT 23 of the old light-dark cycle. Locomotor activity was recorded in 10-min bins wheel running (Actimetrics), and the data obtained were analysed with Clocklab software (Actimetrics). All animal experimental procedures were performed in accordance with the protocol approved by the Institutional Animal Care and Usage Committee (IACUC) of the National Institute of Biological Sciences, Beijing.
# Under a standard jet-lag protocol {Yamaguchi, 2013}, wild-type C57BL/6j mice usually take ˜10 d to adapt to 8 h phase advance. […] Similarly, the drug treated mice adapt faster to the phase delay (FIG. 2D&2E).
# To test whether cordycepin function in vivo, we firstly tested luciferase signal level by live imaging of Per2:LUC mice after intraperitoneal injection of 15 mg/kg cordycepin or DMSO. We found cordycepin induce more than 4 folds increase of luciferase signal in liver when compared with DMSO control (A). […] We also reconfirmed endogenous transcription rate of core clock genes by measuring the pre-mRNA with qPCR in the liver (B). We examined RRE genes (including Bmal1, Clock, Npas2, Cry1 and Nfil3), internal control genes (including Gapdh, Tbp and Actin) and E-box genes (including Per1, Per2, Dbp and Nr1d1). We designed at least 2 primers for each gene. […] Prior evaluation the jet-leg cure ability of cordycepin, we detected whether cordycepin and it's prodrug pro-CA03 can penetrate BBB. We injected cordycepin or pro-CA03 via tail vein and time course sampled CSF and analyzed cordycepin pro-CA03 level with HPLC-MASS method. […] Finally we evaluated the jet-leg cure ability of cordycepin, pro-CA03 and Pro-CA04 with mice behavioral experiment. Wild-type C57BL/6j mice typically take ˜10 days to adapt to an 8 h phase advance. […]
# [2] = biological target: T1, CDK9 (Homo sapiens, UniProt P50750); assay: Biotinylated compounds pull-down in U2OS cell lysate, CDK9; type: binding
# T1 construct: Every 10^8 unsynchronized U2OS cells were collected, homogenized into 2 ml lysis buffer; endogenous in cells; host or cells: U2OS
# Procedure: (§1) Biotinylated Compounds Pull-down, SPR analysis and Immunoprecipitation: The interaction between biotinylated compounds and their target proteins were proceeded as follow. Every 10^8 unsynchronized U2OS cells were collected, homogenized into 2 ml lysis buffer (25 mM MOPS pH7.2, 15 mM EGTA, 15 mM MgCl2, 1 mM DTT, 60 mM β-glycerophosphate, 1 mM Na3VO4, 1 mM NaF, 1 mM phenyl phosphate, Complete Protease Inhibitor Cocktail), and sonicated 6 times for 30 s at 4° C. with a Diagenode bioruptor. After sonication, NP-40 (final 0.5%) was added, incubated 15 min on ice, centrifuged at full speed for 20 min at 4° C. The resultant supernatant was firstly incubated with Pentostatin (final concentration at 5 μg/ml) for 2 h at 4° C. with rotation, and then split into 4 groups. 200 pmol cordycepin, 200 pmol DRB, and DMSO (2 groups, final 0.1%) was added respectively and further incubated for 1 h. […] The eluted protein was analyzed with western blot. The binding affinity of cordycepin against the RUVBL2 protein was measured via SPR technology using a Biacore T200 instrument (GE Healthcare) at room temperature. […] The binding kinetics and binding affinity of cordycepin against the RUVBL2 protein were determined with BIA evaluation software (GE healthcare). […] Immunoprecipitated protein complex was then washed 3 times with IP lysis buffer, boiled and analyzed with western blot. […]
# [3] = biological target: Ruvbl2 (Homo sapiens, UniProt Q9Y230); assay: Biotinylated compounds pull-down in U2OS cell lysate, RUVBL2; type: binding; parameters: Every 10^8 unsynchronized U2OS cells were collected, homogenized into 2 ml lysis buffer; endogenous in cells; host or cells: U2OS; settings: competed by biotin free compound
# Procedure: as §1
# [4] = system: SCN culture slice; assay: Ex vivo SCN slice culture from Per2::LUC mice, lumicycle; type: cell-based, mouse
# Description: Tissue culture, drug treatment and Real-Time Monitoring of Circadian Oscillations: 8 week-old male mPer2 Luciferase knockin mice were Sacrificed cervical dislocation. Then wipe the skin and neck with cotton containing 70% ethanol in a sterile hood. For SCN slice culture, firstly remove the eye balls from the head with scissors, decapitate and cut the skin. Then open the skull, remove all bone until the olfactory bulbs can be seen, cut the optic nerve between the olfactory bulbs and the hemispheres, and finally harvest the whole brain into ice cold HBSS. Trim the brain in HBSS by removing the cerebellum and olfactory bulbs. Attach the brain to a sample tray by glue with the rostral tip upwards and ventral surface closest to the cutting blade, then immediately fill the tray with ice cold HBSS and set the tray to the vibratome. Set the vibratome frequency at the maximum and the speed to the medium. To reach the SCN area quickly, the start cutting off thicker sections should be 500-800 μm. Reduce the sections thicker to 100 μm when the optic chiasm becomes wider. When the two SCN nuclei start to appear, collect the slice with transfer pipettes and check slices under dissecting microscope. […] Data was extract and analyzed with LumiCycle Analysis software. […]
# [5] = system: kidney clocks; assay: Phase shift of kidney clock; type: cell-based
# [6] = system: PER2 locus; assay: ChIP-qPCR analysis for the PER2 locus; type: cell-based
# Procedure: Human and mouse circadian oscillators are driven by interlocked transcriptional and translational feedback loop. Bmal1 and Clock are transcriptional factors and function as positive arm to active negative arm genes transcription, including Per and Cry. Per and Cry are transcriptional repressor and feedback repress Bmal1/Clock's transcription activity thereby inhibit its own transcription. […] We also confirmed this by ChIP-qPCR experiments. Cordycepin treatment 30 min immediately release Cry1/2 and Ruvbl2 binding at Per2 gene promoter.
# [7] = system: E-box genes; assay: Nascent pre-mRNA sequencing (nascent-seq) of U2OS cells; type: cell-based, human
# Description: Manipulating DRB's well characterized target CDK9 protein with AID degron mimics the phase shift curve of DRB in Per2-dLuc cells. […] Using nascent seq experiment, we found DRB treatment repress majority genes expression, but exclusively activates E-box containing gene both in vitro (FIG. 4).
# (red color). […] Thus, perhaps the partial inhibition of CDK9 stimulates, rather than represses, the transcription of E-box genes. Right napel is UCSC genome browser views of E-box containing (NR1D1 and DBP) or non-E-box containing (BMAL1 and CRY1) clock genes
# Ruvbl2, sequence (Q9Y230 whole entry): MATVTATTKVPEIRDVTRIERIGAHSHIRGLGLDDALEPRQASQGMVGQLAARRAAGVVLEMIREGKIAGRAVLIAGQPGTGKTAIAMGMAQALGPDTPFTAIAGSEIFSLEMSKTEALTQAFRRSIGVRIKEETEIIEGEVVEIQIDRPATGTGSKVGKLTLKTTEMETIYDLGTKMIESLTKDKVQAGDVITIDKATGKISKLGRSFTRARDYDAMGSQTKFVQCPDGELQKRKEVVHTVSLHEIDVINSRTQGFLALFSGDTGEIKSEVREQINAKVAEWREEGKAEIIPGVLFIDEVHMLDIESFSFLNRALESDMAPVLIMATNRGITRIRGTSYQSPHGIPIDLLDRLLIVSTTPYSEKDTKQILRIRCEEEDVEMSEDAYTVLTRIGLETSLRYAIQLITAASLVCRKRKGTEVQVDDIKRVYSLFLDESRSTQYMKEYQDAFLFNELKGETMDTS
# T1 sequence (P50750 whole entry): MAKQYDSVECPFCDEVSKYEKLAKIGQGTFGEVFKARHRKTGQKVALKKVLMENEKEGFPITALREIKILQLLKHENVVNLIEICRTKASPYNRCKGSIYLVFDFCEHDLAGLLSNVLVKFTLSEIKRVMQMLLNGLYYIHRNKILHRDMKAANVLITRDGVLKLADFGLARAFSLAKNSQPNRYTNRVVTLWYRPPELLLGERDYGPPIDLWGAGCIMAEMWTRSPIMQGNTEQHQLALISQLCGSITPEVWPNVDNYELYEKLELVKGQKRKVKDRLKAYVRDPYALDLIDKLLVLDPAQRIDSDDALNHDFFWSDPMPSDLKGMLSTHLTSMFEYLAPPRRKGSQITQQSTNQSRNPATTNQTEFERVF
# T1 sequence (O60563 whole entry partner): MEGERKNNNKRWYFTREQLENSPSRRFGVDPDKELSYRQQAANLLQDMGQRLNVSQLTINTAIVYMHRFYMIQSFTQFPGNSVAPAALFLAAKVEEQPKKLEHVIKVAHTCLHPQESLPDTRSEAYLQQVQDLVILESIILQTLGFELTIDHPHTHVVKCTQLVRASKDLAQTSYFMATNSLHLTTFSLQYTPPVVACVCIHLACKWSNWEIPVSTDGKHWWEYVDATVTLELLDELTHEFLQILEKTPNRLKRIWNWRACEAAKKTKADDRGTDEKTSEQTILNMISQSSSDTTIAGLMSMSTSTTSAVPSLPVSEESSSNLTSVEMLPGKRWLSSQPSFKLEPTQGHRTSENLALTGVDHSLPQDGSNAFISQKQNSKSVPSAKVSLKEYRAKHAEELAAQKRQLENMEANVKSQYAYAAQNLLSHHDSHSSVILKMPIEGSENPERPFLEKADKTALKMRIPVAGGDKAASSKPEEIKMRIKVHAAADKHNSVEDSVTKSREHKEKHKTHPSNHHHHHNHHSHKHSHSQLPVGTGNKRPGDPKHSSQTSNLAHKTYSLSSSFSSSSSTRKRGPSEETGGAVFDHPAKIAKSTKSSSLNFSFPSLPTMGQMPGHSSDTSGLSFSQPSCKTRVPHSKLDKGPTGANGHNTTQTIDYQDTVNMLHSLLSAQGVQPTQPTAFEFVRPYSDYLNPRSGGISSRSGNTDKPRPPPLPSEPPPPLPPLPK
smiles,measurement,setting,value
CCCCCCCC(=O)Nc1ncnc2c1ncn2[C@@H]1O[C@H](CO)C[C@H]1O,With Pentostadin Cell Assay: Dose effect,[1],Dose effect (15 mg/kg)
"CCCCCCCC(=O)Nc1ncnc2c1ncn2[C@@H]1O[C@H](CO)[C@H](O)[C@H]1O [Pro-CA04, N-octanoyl-9-(P-D-xylofuranosyl)-adenine]",adaption time after 8 phase advance,[1]; DMSO 10 days,~5 days
"O=C1N[C@H]2[C@H](CS[C@H]2CCCCC(=O)OC[C@H]2O[C@@H](n3cnc4cc(Cl)c(Cl)cc43)[C@H](O)[C@@H]2O)N1 [biotin-DRB, 5,6-dichloro-1-(5′-O-biotinyl-β-D-ribofuranosyl)-benzimidazole]",pull-down of CDK9,[2],successfully isolated
same,pull-down of Ruvbl2,[3],can pull-down
CCCCCCCC(=O)Nc1ncnc2c1ncn2[C@@H]1O[C@H](CO)[C@H](O)[C@H]1O [drawing 329],With Pentostadin Cell Assay: Dose effect,[1],Dose effect (15 mg/kg)
"OC[C@H]1O[C@@H](n2cnc3cc(Cl)c(Cl)cc32)[C@H](O)[C@@H]1O [DRB, 5,6-dichloro-1-β-D-ribobenzimidazole]",clock phase of SCN slice,[4],shift the phase
same,clock phase of kidney,[5],shift the phase
same,binding of BMAL1 at PER2 locus,[6],remained unchanged
same,binding of CRY2/RUVBL2 at PER2 locus,[6],released
same,nascent transcription of E-box genes,"[7]; 1, 2, 4 h post administration",all up-regulated
same,newly synthesized mRNA of the majority of genes,[7]; within the first hour,reduced
